# Experimental data as given in the supplement of paper PMC10307832.
# Columns and labels:
# Test in all cases: relative viability (nuclei count vs DMSO), 5 days (fraction); higher = more cells survive
# Gemcitabine + Alpelisib = compound: Nc1ccn([C@@H]2O[C@H](CO)[C@@H](O)C2(F)F)c(=O)n1 [Gemcitabine] + Cc1nc(NC(=O)N2CCC[C@H]2C(N)=O)sc1-c1ccnc(C(C)(C)C(F)(F)F)c1 [Alpelisib] (partner 2 µM)
# Outline: (§1)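 Relative viability divides the nuclei count in treated wells by that in vehicle wells. Lung cancer cell lines were seeded in 1536-well plates, dosed by pin tool the next day, and fixed and stained after 5 days in one step with final 0.05% Triton X-100, 1% formaldehyde and 1 ug/ml Hoechst. Dosing was a single drug or a fixed anchor-drug dose plus five library-drug doses (not always all listed) in √10 steps, and values are medians of duplicate plates imaged at 4×.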
# Gemcitabine + Luminespib = compound: Nc1ccn([C@@H]2O[C@H](CO)[C@@H](O)C2(F)F)c(=O)n1 [Gemcitabine] + CCNC(=O)c1noc(-c2cc(C(C)C)c(O)cc2O)c1-c1ccc(CN2CCOCC2)cc1 [Luminespib] (partner 0.01 µM)
# Outline: as §1
# Gemcitabine + Tozasertib = compound: Nc1ccn([C@@H]2O[C@H](CO)[C@@H](O)C2(F)F)c(=O)n1 [Gemcitabine] + Cc1cc(Nc2cc(N3CCN(C)CC3)nc(Sc3ccc(NC(=O)C4CC4)cc3)n2)n[nH]1 [Tozasertib] (partner 0.1 µM)
# Outline: as §1
# Gemcitabine + Dasatinib = compound: Nc1ccn([C@@H]2O[C@H](CO)[C@@H](O)C2(F)F)c(=O)n1 [Gemcitabine] + Cc1nc(Nc2ncc(C(=O)Nc3c(C)cccc3Cl)s2)cc(N2CCN(CCO)CC2)n1 [Dasatinib] (partner 0.075 µM)
# Outline: as §1
Cell Line,relative viability (Gemcitabine + Alpelisib; first compound 0.001 µM),relative viability (Gemcitabine + Alpelisib; first compound 0.003162 µM),relative viability (Gemcitabine + Alpelisib; first compound 0.01 µM),relative viability (Gemcitabine + Alpelisib; first compound 0.03162 µM),relative viability (Gemcitabine + Alpelisib; first compound 0.1 µM),relative viability (Gemcitabine + Luminespib; first compound 0.001 µM),relative viability (Gemcitabine + Luminespib; first compound 0.003162 µM),relative viability (Gemcitabine + Luminespib; first compound 0.01 µM),relative viability (Gemcitabine + Luminespib; first compound 0.03162 µM),relative viability (Gemcitabine + Luminespib; first compound 0.1 µM),relative viability (Gemcitabine + Tozasertib; first compound 0.001 µM),relative viability (Gemcitabine + Tozasertib; first compound 0.003162 µM),relative viability (Gemcitabine + Tozasertib; first compound 0.01 µM),relative viability (Gemcitabine + Tozasertib; first compound 0.03162 µM),relative viability (Gemcitabine + Tozasertib; first compound 0.1 µM),relative viability (Gemcitabine + Dasatinib; first compound 0.001 µM),relative viability (Gemcitabine + Dasatinib; first compound 0.003162 µM),relative viability (Gemcitabine + Dasatinib; first compound 0.01 µM),relative viability (Gemcitabine + Dasatinib; first compound 0.03162 µM),relative viability (Gemcitabine + Dasatinib; first compound 0.1 µM)
HCC-15,1.01,0.893,0.766,0.145,0.0627,0.305,0.234,0.32,0.15,0.0821,0.51,0.436,0.39,0.247,0.0632,0.589,0.666,0.561,0.0908,0.0718
HCC-44,0.808,0.791,0.636,0.238,0.122,1.07,0.979,0.813,0.261,0.226,1.05,0.918,0.774,0.194,0.162,,,,,
HCC-78,0.278,0.241,0.12,0.157,0.13,,,,,,0.448,0.37,0.147,0.198,0.164,0.322,0.31,0.232,0.154,0.209
HCC-366,0.516,0.359,0.0565,0.0184,0.0102,,,,,,0.14,0.105,0.0801,0.0228,0.0235,0.633,0.637,0.155,0.0301,0.0176
HCC-827,0.895,0.48,0.56,0.391,0.167,0.777,0.365,0.386,0.259,0.16,0.402,0.392,0.303,0.191,0.169,0.295,0.226,0.319,0.253,0.186
HOP-62,0.829,0.572,0.0893,0.0529,0.061,0.968,0.852,0.376,0.107,0.106,0.392,0.285,0.0943,0.0841,0.0623,0.667,0.571,0.163,0.0786,0.0707
IA-LM,0.789,0.644,0.744,0.0658,0.0561,,,,,,,,,,,,,,,
LC-2-ad,0.901,0.833,0.5,0.0947,0.0966,1.15,0.885,0.832,0.258,0.219,0.497,0.407,0.379,0.191,0.2,0.567,0.226,0.193,0.167,0.138
LCLC-97TM1,0.228,0.131,0.115,0.107,0.128,0.813,0.86,0.334,0.202,0.129,0.253,0.244,0.156,0.123,0.134,0.819,0.803,0.429,0.159,0.106
LCLC-103H,1,0.878,0.949,1,0.272,0.956,1.01,0.845,0.314,0.183,0.491,0.399,0.395,0.176,0.139,0.54,0.53,0.502,0.179,0.223
NCI-H522,,,,,,1.14,1.08,0.727,0.392,0.368,0.555,0.396,0.379,0.354,0.312,0.987,0.722,0.384,0.42,0.36
NCI-H1563,0.99,0.94,0.635,0.651,0.428,0.522,0.549,0.585,0.483,0.441,,,,,,0.433,0.46,0.457,0.378,0.373
NCI-H1648,,,,,,,,,,,0.593,,0.407,0.251,0.198,,,,,
NCI-H1650,,,,,,0.197,0.185,0.177,0.197,0.177,0.507,0.348,0.273,0.119,0.113,0.297,0.241,0.141,0.088,0.115
NCI-H1703,0.274,0.178,0.107,0.113,0.117,,,,,,,,,,,,,,,
NCI-H1792,0.774,0.483,0.182,0.101,0.07,0.382,0.286,0.233,0.206,0.167,,,,,,0.785,0.485,0.329,0.192,0.142
NCI-H2342,,,,,,0.591,0.61,0.543,0.376,0.331,0.456,0.451,0.427,0.279,0.268,0.312,0.277,0.282,0.233,0.293
SW 900,,,,,,0.147,0.187,0.164,0.161,0.148,0.462,0.241,0.127,0.0969,0.109,0.526,0.138,0.0977,0.0689,0.0628
